Data taken from patent US9809602B2, “Compounds for treating viral infections” (INSTITUT PASTEUR KOREA, priority 2014, dated 2017).

Assays:
[1] = tested on: HCV genotype 1b (J4) chimeric HCVcc; assay: Pan-genotypic activity test using chimeric HCVcc, genotype 1b; format: cell-based; conditions: Hepatitis C virus, read-out: EC50 gt1b
Protocol: (§1) Naïve Huh-7.5 target cells were plated at 2400 cells/well in 25 μL of culture media in 384-well plates (Greiner bio-one, μ clear black). After overnight incubation, compounds serially diluted in 10 μL of cell culture media were added. After 2 h compound treatment, cells were inoculated with 40 μL of genotype 1/2 chimeric cell culture derived HCV (HCVcc) which express structural proteins of an HCV genotype 1a isolate (TN accession number EF621489) and non-structural proteins of HCV genotype 2a (JFH-1) with nano-luciferase reporter. At 72 h post infection, nano-luciferase activity (Nano-Glo™, Promega) and cellular ATP (Cell titer-Glo™, Promega) were measured as a marker for HCV replication and cytotoxicity, respectively. EC50 and CC50 were calculated by non-linear regression analyzing using GraphPad Prism (GraphPad Software).
(§2) In order to evaluate cross-genotypic antiviral activity against various HCV genotypes, Formulas I and II were tested using chimeric HCVcc as described above. HCV chimeras expressing the structural proteins of HCV genotype 1b (J4), 2a (J6), 2b (J8), 3a (S52), 4a (ED43), 5a (SA13), 6a (HK6a) or 7a (QC69), followed by HCV genotype 2a (JFH-1) derived non-structural proteins responsible for viral RNA replication and Renilla luciferase reporter gene were used to monitor viral replication.

[2] = tested on: HCV genotype 2b (J8) chimeric HCVcc; assay: Pan-genotypic activity test using chimeric HCVcc, genotype 2b; format: cell-based; conditions: Hepatitis C virus, read-out: EC50 gt2b
Protocol: as §1, §2

[3] = tested on: HCV genotype 2a (J6) chimeric HCVcc; assay: Pan-genotypic activity test using chimeric HCVcc, genotype 2a; format: cell-based; conditions: Hepatitis C virus, read-out: EC50 gt2a
Protocol: as §1, §2

[4] = tested on: HCV genotype 1a chimeric HCVcc; assay: Pan-genotypic activity test using chimeric HCVcc, genotype 1a; format: cell-based; conditions: Hepatitis C virus, read-out: EC50 gt1a
[5] = tested on: HCV genotype 4a (ED43) chimeric HCVcc; assay: Pan-genotypic activity test using chimeric HCVcc, genotype 4a; format: cell-based; conditions: Hepatitis C virus, read-out: EC50 gt4a
Protocol: as §1, §2

[6] = tested on: HCV genotype 6a (HK6a) chimeric HCVcc; assay: Pan-genotypic activity test using chimeric HCVcc, genotype 6a; format: cell-based; conditions: Hepatitis C virus, read-out: EC50 gt6a
Protocol: as §1, §2

[7] = tested on: HCV genotype 3a (S52) chimeric HCVcc; assay: Pan-genotypic activity test using chimeric HCVcc, genotype 3a; format: cell-based; conditions: Hepatitis C virus, read-out: EC50 gt3a
Protocol: as §1, §2

[8] = tested on: HCV genotype 5a (SA13) chimeric HCVcc; assay: Pan-genotypic activity test using chimeric HCVcc, genotype 5a; format: cell-based; conditions: Hepatitis C virus, read-out: EC50 gt5a
Protocol: as §1, §2

[9] = tested on: HCV genotype 7a (QC69) chimeric HCVcc; assay: Pan-genotypic activity test using chimeric HCVcc, genotype 7a; format: cell-based; conditions: Hepatitis C virus, read-out: EC50 gt7a
Protocol: as §1, §2

[10] = tested on: genotype 1/2 chimeric cell culture derived HCV (HCVcc); assay: Genotype 1/2 chimeric HCVcc assay (nano-luciferase, HCV replication); format: cell-based; conditions: Hepatitis C virus
Method in brief: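 Huh-7.5 cells (2400/well) pretreated 2 h with serially diluted compound, then infected with nano-luciferase genotype 1a/2a (JFH-1) chimeric HCVcc. At 72 h post infection, nano-luciferase reported replication and cellular ATP reported cytotoxicity; EC50 and CC50 by non-linear regression.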

CCOC(=O)c1c(NC(=O)NCc2c(-n3cccc3)sc3c2CCN(CC(C)C)C3)sc2c1CCCC2 [No. 27] showed an EC50 [1] of 0.1 to 1 µM, an EC50 [2] of 0.1 to 1 µM and an EC50 [3] of 0.1 to 1 µM. The EC50 [4] was 0.1 to 1 µM, the EC50 [5] was 0.1 to 1 µM and the EC50 [6] was over 10 µM. It also gave an EC50 [7] of 0.1 to 1 µM, an EC50 [8] of 1 to 10 µM and an EC50 [9] of 0.1 to 1 µM.
Molecule CC(C)OC(=O)c1c(NC(=O)NCc2c(C(F)(F)F)sc3c2CCNC3)sc2c1CCCC2 [No. 167] has an EC50 [1] of under 0.1 µM, an EC50 [2] of under 0.1 µM and an EC50 [3] of under 0.1 µM. For the same molecule, the EC50 [4] was under 0.1 µM, the EC50 [5] was under 0.1 µM and the EC50 [6] was over 10 µM. For the same molecule, the EC50 [7] was under 0.1 µM, the EC50 [8] was 1 to 10 µM and the EC50 [9] was under 0.1 µM.
With CCOC(=O)c1c(NC(=O)NCc2c(-n3cccc3)sc3c2CCN(CC)C3)sc(C)c1C [Compound 12] the melting point was 196.9 °C and the EC50 ([10]; Huh7.5, 72 h) was 0.1 to 1 µM.
In the case of CCN1CCc2c(sc(-n3cccc3)c2CNC(=O)Nc2sccc2C(=O)OC)C1 [Compound 11], the melting point is reported as 201.8 °C and the EC50 ([10]; Huh7.5, 72 h) is reported as 1 to 10 µM.
CCOC(=O)c1c(NC(=O)NCc2c(C(F)(F)F)sc3c2CCN(CCN(C)C)C3)sc2c1CCCC2 [No. 316] showed an EC50 [1] of under 0.1 µM, an EC50 [2] of under 0.1 µM and an EC50 [3] of under 0.1 µM. The EC50 [4] was under 0.1 µM, the EC50 [5] was under 0.1 µM and the EC50 [6] was over 10 µM. It also gave an EC50 [7] of under 0.1 µM, an EC50 [8] of 1 to 10 µM and an EC50 [9] of under 0.1 µM.
Work on O=C(NCCCN1CCC(N2CCCCC2)CC1)c1ccc(Oc2ccccc2)cc1 [No. 1013] yielded an EC50 [1] of over 10 µM, an EC50 [2] of 0.1 to 1 µM and an EC50 [3] of 1 to 10 µM. For the same molecule, the EC50 [4] was over 10 µM, the EC50 [5] was over 10 µM and the EC50 [6] was over 10 µM. The EC50 [7] was over 10 µM, the EC50 [8] was over 10 µM and the EC50 [9] was over 10 µM.
CC(C)(C)OC(=O)c1c(NC(=O)NCc2c(C(F)(F)F)sc3c2CCNC3)sc2c1CCCC2 [No. 121] showed an EC50 [1] of under 0.1 µM, an EC50 [2] of under 0.1 µM and an EC50 [3] of under 0.1 µM. It also gave an EC50 [4] of under 0.1 µM, an EC50 [5] of under 0.1 µM and an EC50 [6] of over 10 µM. It also gave an EC50 [7] of under 0.1 µM, an EC50 [8] of 1 to 10 µM and an EC50 [9] of under 0.1 µM.
Work on O=C(NCCCN1CCC(N2CCCCC2)CC1)c1ccc(-c2ccc(C(F)(F)F)cc2)cc1 [No. 1019] yielded an EC50 [1] of over 10 µM, an EC50 [2] of 1 to 10 µM and an EC50 [3] of 1 to 10 µM. The EC50 [4] was over 10 µM, the EC50 [5] was over 10 µM and the EC50 [6] was over 10 µM. For the same molecule, the EC50 [7] was over 10 µM, the EC50 [8] was over 10 µM and the EC50 [9] was over 10 µM.
For CCOC(=O)c1c(NC(=O)NCc2c(C(F)(F)F)sc3c2CCN(C(C)C)C3)sc2c1CCCC2 [Compound 198], the EC50 ([10]; Huh7.5, 72 h) was under 0.1 µM.
Work on O=S(=O)(NCCCN1CCC(N2CCCCC2)CC1)c1ccc(-c2ccc(F)cc2)cc1 [Compound 1096] yielded an EC50 [10] of 0.1 to 1 µM.
Work on CCOC(=O)c1c(NC(=O)NCc2c(-n3cccc3)sc3c2CCN(C)C3)sc2c1CC(C)CC2 (stereo not drawn) [Compound 191] yielded an EC50 ([10]; Huh7.5, 72 h) of under 0.1 µM.
Work on O=C(NCCCN1CCC(N2CCCCC2)CC1)c1c(F)cc(-c2ccc(C(F)(F)F)cc2)cc1F [Compound 1106] yielded an EC50 [10] of 0.1 to 1 µM.
Molecule CC1CCc2c(sc(NC(=O)NCc3c(C(F)(F)F)sc4c3CCNC4)c2C(=O)OC(C)(C)C)C1 (stereo not drawn) [Compound 212] has an EC50 ([10]; Huh7.5, 72 h) of under 0.1 µM.
For CCc1sc(NC(=O)NCc2c(-n3cccc3)sc3c2CCNC3)c(C(=O)OC(C)(C)C)c1C [Compound 318], the EC50 ([10]; Huh7.5, 72 h) was 0.1 to 1 µM.
Molecule CCN1CCc2c(sc(-n3cccc3)c2CNC(=O)Nc2sc3c(c2C(=O)NCCCCNC(=O)CCCCCN)CCCC3)C1 [Compound 88] has an EC50 ([10]; Huh7.5, 72 h) of 1 to 10 µM.
For CCN1CCc2c(sc(C(F)(F)F)c2CNC(=O)Nc2sc3c(c2C(=O)OC(C)C)CCCC3)C1 [Compound 171], the EC50 ([10]; Huh7.5, 72 h) was under 0.1 µM.
Molecule O=C(NCCCN1CCC(N2CCCCC2)CC1)c1cc2ccccc2s1 [Compound 1009] has an EC50 [10] of 1 to 10 µM.
For CC(C)(C)OC(=O)c1c(NC(=O)NCc2c(C(F)(F)F)sc3c2CCNC3)sc2c1CCC(O)C2 (stereo not drawn) [Compound 349], the EC50 ([10]; Huh7.5, 72 h) was under 0.1 µM.
For CC(C)OC(=O)c1c(NC(=O)NCc2c(-n3cccc3)sc3c2CCN(C)C3)sc2c1CCCC2 [Compound 156], the EC50 ([10]; Huh7.5, 72 h) was under 0.1 µM.
For O=C(NCCCCN1CCC(N2CCCCC2)CC1)c1ccc(Oc2ccccc2)cc1 [Compound 1045], the EC50 [10] was 0.1 to 1 µM.
Molecule O=C(NCCCN1CCC(N2CCCCC2)CC1)c1ccc(-c2ccccc2Cl)cc1 [Compound 1146] has an EC50 [10] of 0.1 to 1 µM.
For Cc1nnc(-c2c(NC(=O)NCc3c(-n4cccc4)sc4c3CCNC4)sc(C)c2C)o1 [Compound 72], the EC50 ([10]; Huh7.5, 72 h) was 0.1 to 1 µM.
